Each compound was assayed against T1, oxidase-type xanthine oxidoreductase (from buttermilk) (Bos taurus, UniProt P80457) (assay: xanthine oxidase inhibitory activity (change of absorbance at 290 nm)). Conditions: xanthine substrate, read-out: Inhibitor Activity.
T1 construct: purchased Calbiochem Novabiochem Corp; host or cells: buttermilk (natural source)
Format: biochemical
Protocol: Test compound was dissolved in DMSO (manufactured by Sigma Co.) to prepare a 20 mM solution. The solution was adjusted to an optimal concentration and used for the testing.
This evaluation was carried out by measuring oxidase-type xanthine oxidoreductase activity. Concretely, a xanthine (manufactured by Sigma Co.) solution was prepared at 10 mM using a 20 mM sodium hydroxide solution and then mixed with 100 mM phosphate buffer to adjusted to 30 μM. 75 μL of the solution was added to each well of the 96-well plate. The test compound diluted with DMSO at 100 times of a final concentration was added to each well at 1.5 μL per well. […] Immediately after mixing, the change of absorbance at 290 nm was measured for 5 minutes. The enzyme activity of DMSO solution without test compound was used as 100% control, and the inhibitory rate of the test compounds was calculated. Fifty percent inhibitory concentration of the test compounds on the oxidase-type xanthine oxidoreductase activity was calculated by fitting to the dose-response curve.

T1 sequence (P80457 whole entry): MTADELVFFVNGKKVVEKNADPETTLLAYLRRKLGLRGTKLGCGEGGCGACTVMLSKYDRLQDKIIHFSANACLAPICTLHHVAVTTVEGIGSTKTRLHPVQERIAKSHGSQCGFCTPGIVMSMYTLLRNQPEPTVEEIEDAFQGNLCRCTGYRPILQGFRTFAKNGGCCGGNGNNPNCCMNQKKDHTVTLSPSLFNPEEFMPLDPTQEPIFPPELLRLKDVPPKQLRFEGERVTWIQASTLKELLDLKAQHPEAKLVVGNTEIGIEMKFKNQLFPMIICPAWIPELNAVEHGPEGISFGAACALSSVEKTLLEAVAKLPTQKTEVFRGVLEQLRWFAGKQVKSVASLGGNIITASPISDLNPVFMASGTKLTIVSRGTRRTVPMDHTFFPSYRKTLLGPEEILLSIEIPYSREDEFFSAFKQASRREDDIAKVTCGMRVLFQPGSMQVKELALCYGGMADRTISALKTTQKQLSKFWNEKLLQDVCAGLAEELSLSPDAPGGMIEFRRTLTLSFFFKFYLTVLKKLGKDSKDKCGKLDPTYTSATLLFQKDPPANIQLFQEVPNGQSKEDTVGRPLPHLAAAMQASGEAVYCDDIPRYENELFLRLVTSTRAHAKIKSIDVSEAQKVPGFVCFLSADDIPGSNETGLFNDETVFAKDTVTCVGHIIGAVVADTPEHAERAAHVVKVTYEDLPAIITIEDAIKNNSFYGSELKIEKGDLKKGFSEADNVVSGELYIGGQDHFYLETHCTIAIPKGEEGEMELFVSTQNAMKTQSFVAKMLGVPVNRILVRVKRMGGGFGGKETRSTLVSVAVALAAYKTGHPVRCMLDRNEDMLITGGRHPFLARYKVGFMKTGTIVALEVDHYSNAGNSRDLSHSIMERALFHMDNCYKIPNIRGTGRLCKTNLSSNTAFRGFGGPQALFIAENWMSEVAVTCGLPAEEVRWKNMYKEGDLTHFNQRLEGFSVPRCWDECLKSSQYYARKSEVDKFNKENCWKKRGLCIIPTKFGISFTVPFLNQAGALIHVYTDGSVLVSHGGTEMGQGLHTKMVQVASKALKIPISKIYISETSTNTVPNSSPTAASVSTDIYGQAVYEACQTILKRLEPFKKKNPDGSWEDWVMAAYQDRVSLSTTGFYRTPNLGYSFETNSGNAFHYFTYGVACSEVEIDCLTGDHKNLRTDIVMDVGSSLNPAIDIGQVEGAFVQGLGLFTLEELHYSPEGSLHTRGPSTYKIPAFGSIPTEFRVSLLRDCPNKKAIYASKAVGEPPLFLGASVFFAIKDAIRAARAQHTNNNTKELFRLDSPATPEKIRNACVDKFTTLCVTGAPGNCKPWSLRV

| SMILES | IC50 [nM] |
| --- | --- |
| Cc1nc(-c2ccc(OCC(C)C)c(-n3ccnc3)c2)sc1C(=O)O [Compound No. 1, 2-[3-(1H-imidazol-1-yl)-4-(2-methylpropoxy)phenyl]-4-methyl-1,3-thiazole-5-carboxylic acid] | 1 to 5 |
| Cc1nc(-c2ccc(OCC3CCCC3)c(-n3ccnc3)c2)sc1C(=O)O [Compound No. 4, 2-[4-(cyclopentylmethoxy)-3-(1H-imidazol-1-yl)phenyl]-4-methyl-1,3-thiazole-5-carboxylic acid] | 5 to 10 |
| Cc1nc(-c2ccc(OC3CCCC3)c(-n3ccnc3)c2)sc1C(=O)O [Compound No. 5, 2-[4-(cyclopentyloxy)-3-(1H-imidazol-1-yl)phenyl]-4-methyl-1,3-thiazole-5-carboxylic acid] | 5 to 10 |
| Cc1nc(-c2ccc(Oc3ccccc3)c(-n3ccnc3)c2)sc1C(=O)O [Compound No. 7, 2-[3-(1H-imidazol-1-yl)-4-phenoxyphenyl]-4-methyl-1,3-thiazole-5-carboxylic acid] | > 10 |
| Cc1nc(-c2ccc(Oc3ccccc3F)c(-n3ccnc3)c2)sc1C(=O)O [Compound No. 8, 2-[4-(2-fluorophenoxy)-3-(1H-imidazol-1-yl)phenyl]-4-methyl-1,3-thiazole-5-carboxylic acid] | > 10 |
| Cc1nc(-c2ccc(Oc3ccccc3)c(-n3cncn3)c2)sc1C(=O)O [Compound No. 15] | > 10 |
| Cc1nc(-c2ccc(OC(C)C)c(-n3ccnn3)c2)sc1C(=O)O [Compound No. 16, 4-methyl-2-[4-(propan-2-yloxy)-3-(1H-1,2,3-triazol-1-yl)phenyl]-1,3-thiazole-5-carboxylic acid] | 1 to 5 |
| Cc1nc(-c2ccc(OC(C)C)c(-n3cnnn3)c2)sc1C(=O)O [Compound No. 24, 4-methyl-2-[4-(propan-2-yloxy)-3-(1H-1,2,3,4-tetrazole-1-yl)phenyl]-1,3-thiazole-5-carboxylic acid] | 1 to 5 |
| Cc1nc(-c2ccc(OCC(C)(C)O)c(-n3cnnn3)c2)sc1C(=O)O [Compound No. 30, 2-[4-(2-hydroxy-2-methylpropoxy)-3-(1H-1,2,3,4-tetrazol-1-yl)phenyl]-4-methyl-1,3-thiazole-5-carboxylic acid] | 1 to 5 |
| CCN(CC)c1ccc(-c2nc(C)c(C(=O)O)s2)cc1-n1cnnn1 [Compound No. 52, 2-[4-(N,N-diethylamino)-3-(1H-1,2,3,4-tetrazol-1-yl)phenyl]-4-methyl-1,3-thiazole-5-carboxylic acid] | 1 to 5 |
| Cc1nc(-c2ccc(OCC(C)C)c(-n3ccnc3C)c2)sc1C(=O)O [compound 9, 4-methyl-2-[3-(2-methyl-1H-imidazol-1-yl)-4-(2-methylpropoxy)phenyl]-1,3-thiazole-5-carboxylic acid] | 1 to 5 |
| Cc1nc(-c2ccc(OCC(C)C)c(-n3cncn3)c2)sc1C(=O)O [compound 13, 4-methyl-2-[4-(2-methylpropoxy)-3-(1H-1,2,4-triazol-1-yl)phenyl]-1,3-thiazole-5-carboxylic acid] | 1 to 5 |
| Cc1nc(-c2ccc(OCC(C)C)c(-n3ccnn3)c2)sc1C(=O)O [compound 17, 4-methyl-2-[4-(2-methylpropoxy)-3-(1H-1,2,3-triazol-1-yl)phenyl]-1,3-thiazole-5-carboxylic acid] | 1 to 5 |
| Cc1nc(-c2ccc(OCC(C)(C)C)c(-n3ccnn3)c2)sc1C(=O)O [compound 18, 2-[4-(2,2-dimethylpropoxy)-3-(1H-1,2,3-triazol-1-yl)phenyl]-4-methyl-1,3-thiazole-5-carboxylic acid] | 1 to 5 |
| Cc1nc(-c2ccc(OCC3CCC3)c(-n3ccnn3)c2)sc1C(=O)O [compound 19, 2-[4-(cyclobutylmethoxy)-3-(1H-1,2,3-triazol-1-yl)phenyl]-4-methyl-1,3-thiazole-5-carboxylic acid] | 1 to 5 |
| CC(C)Oc1ccc(-c2ncc(C(=O)O)s2)cc1-n1ccnn1 [compound 20, 2-[4-(propan-2-yloxy)-3-(1H-1,2,3-triazol-1-yl)phenyl]-1,3-thiazole-5-carboxylic acid] | 1 to 5 |
| CC(C)COc1ccc(-c2ncc(C(=O)O)s2)cc1-n1ccnn1 [compound 21, 2-[4-(2-methylpropoxy)-3-(1H-1,2,3-triazol-1-yl)phenyl]-1,3-thiazole-5-carboxylic acid] | 1 to 5 |

Now from value to compound:

| IC50 [nM] | SMILES |
| --- | --- |
| 5 to 10 | Cc1nc(-c2ccc(OCC(C)(C)C)c(-n3ccnc3)c2)sc1C(=O)O [Compound No. 2, 2-[4-(2,2-dimethylpropoxy)-3-(1H-imidazol-1-yl)phenyl]-4-methyl-1,3-thiazole-5-carboxylic acid] |
| 5 to 10 | Cc1nc(-c2ccc(OCC3CCC3)c(-n3ccnc3)c2)sc1C(=O)O [Compound No. 3, 2-[4-(cyclobutylmethoxy)-3-(1H-imidazol-1-yl)phenyl]-4-methyl-1,3-thiazole-5-carboxylic acid] |
| 1 to 5 | Cc1nc(-c2ccc(OCC(C)CO)c(-n3cnnn3)c2)sc1C(=O)O (stereo not shown) [Compound No. 29, 2-[4-(3-hydroxy-2-methylpropoxy)-3-(1H-1,2,3,4-tetrazol-1-yl)phenyl]-4-methyl-1,3-thiazole-5-carboxylic acid] |
| 1 to 5 | Cc1nc(-c2ccc(Oc3ccccc3)c(-n3cnnn3)c2)sc1C(=O)O [Compound No. 33, 4-methyl-2-[4-phenoxy-3-(1H-1,2,3,4-tetrazol-1-yl)phenyl]-1,3 thiazole-5-carboxylic acid] |
| 1 to 5 | Cc1nc(-c2ccc(SCC(C)C)c(-n3cnnn3)c2)sc1C(=O)O [Compound No. 49, 4-methyl-2-{4-[(2-methylpropyl)sulfanyl]-3-(1H-1,2,3,4-tetrazol-1-yl)phenyl}-1,3-thiazole-5-carboxylic acid] |
| 1 to 5 | Cc1nc(-c2ccc(N3CCCC3)c(-n3cnnn3)c2)sc1C(=O)O [Compound No. 53, 4-methyl-2-[4-(pyrrolidin-1-yl)-3-(1H-1,2,3,4-tetrazol-1-yl)phenyl]-1,3-thiazole 5-carboxylic acid] |
| 5 to 10 | Cc1nc(-c2ccc(OC3CCCCC3)c(-n3ccnc3)c2)sc1C(=O)O [compound 6, 2-[4-(cyclohexyloxy)-3-[1H-imidazol-1-yl)phenyl]-4-methyl-1,3-thiazole-5-carboxylic acid] |
| 5 to 10 | Cc1nc(-c2ccc(OCC(C)C)c(-n3nnnc3C)c2)sc1C(=O)O [compound 10, 4-methyl-2-[3-(5-methyl-1H-1,2,3,4-tetrazol-1-yl)-4-(2-methylpropoxy)phenyl]-1,3-thiazole-5-carboxylic acid] |
| 1 to 5 | Cc1nc(-c2ccc(OCC(C)C)c(-n3cnc4ccccc43)c2)sc1C(=O)O [compound 11, 2-[3-(1H-1,3-benzodiazol-1-yl)-4-(2-methylpropoxy)phenyl]-4-methyl-1,3-thiazole-5-carboxylic acid] |
| 1 to 5 | Cc1ncn(-c2cc(-c3nc(C)c(C(=O)O)s3)ccc2OCC(C)C)n1 [compound 12, 4-methyl-2-[3-(3-methyl-1H-1,2,4-triazol-1-yl)-4-(2-methylpropoxy)phenyl]-1,3-thiazole-5-carboxylic acid] |
| 1 to 5 | Cc1nc(-c2ccc(OCC(C)C)c(-n3ncnc3C)c2)sc1C(=O)O [compound 14, 4-methyl-2-[3-(5-methyl-1H-1,2,4-triazol-1-yl)-4-(2-methylpropoxy)phenyl]-1,3-thiazole-5-carboxylic acid] |

Source: patent US9388174B2, “Azole benzene derivative” (TEIJIN PHARMA LIMITED, priority 2013, dated 2016)
